The source of these data is ChEMBL document CHEMBL1138726, “Novel diarylsulfonylurea derivatives as potent antimitotic agents” (Bioorg Med Chem Lett, 2004).

The test system of test [1] is HCT-116. Kind of test: Compound was tested for growth inhibition of human colon carcinoma HCT116 cell line. Type of test: functional.
For test [2], the system named is NCI-H460. Put plainly: Compound was tested for growth inhibition of human non-small cell lung cancer NCI-H460 cell line. Type of test: functional.
A short description of test [3]: Compound was tested for inhibition of tubulin polymerisation.
Test [4] in a line: Compound was tested for inhibition of tubulin polymerisation at 1 uM.
For test [5], the system named is A549. Put plainly: Inhibition of human non-small cell lung cancer A549 cell proliferation. In kind it is functional.
Test [6] relates to MCF7. Kind of test: Compound was tested for growth inhibition of MCF-7 cell line (non multidrug resistant). In kind it is functional. As to conditions: Homo sapiens.
Test [7] has as its system NCI/ADR-RES. Kind of test: Compound was tested for growth inhibition of multidrug resistant tumor MCF-7/ADR cell line. In kind it is functional. As to conditions: Homo sapiens.
In test [8] the test system is HCT-15. Kind of test: Compound was tested for growth inhibition of multidrug resistant tumor HCT-15 cell line. In kind it is functional. As to conditions: Homo sapiens.
The subject of test [9] is A498. Kind of test: Compound was tested for growth inhibition of multidrug resistant tumor A498 cell line. Type of test: functional. As to conditions: Homo sapiens.
For test [10], the system named is NCI-H226. Put plainly: Compound was tested for growth inhibition of multidrug resistant tumor NCI-H226 cell line. Type of test: functional. As to conditions: Homo sapiens.

A word on the GI50: it is the concentration giving 50% growth inhibition. A low value points to greater sensitivity of the cells. By IC50 is commonly meant the concentration needed to halve the response being measured. Read a high IC50 as a need for much substance. For orientation: inhibition means how much of the control response was suppressed. High values mean strong suppression, low ones little suppression. For the compound `O=C(Cc1cccs1)N1CCc2cc(S(=O)(=O)N3C[C@H](c4ccccc4)NC3=O)ccc21`, the GI50 came out at 6 nM in [1], 7 nM in test [2] and 7 nM in [5]. In addition, the half-maximal inhibitory concentration (IC50) in test [3] was below 1000 nM. Further, the inhibition in test [4] was 82%.

As for `Nc1ccc(C(=O)N2CCc3cc(S(=O)(=O)N4CC(c5ccc(F)cc5)NC4=O)ccc32)cc1` (centres undefined), the results for the 50% growth inhibitory concentration (GI50) in test [1], in [2] and in test [5] were 1100 nM, 900 nM and 1200 nM, respectively.

Turning to `O=C(c1ccc([N+](=O)[O-])o1)N1CCc2cc(S(=O)(=O)N3C[C@H](c4ccccc4)NC3=O)ccc21`, the GI50 in test [1] stood at 270 nM; in test [2], 950 nM; in test [5], 950 nM. The IC50 in test [3] worked out at 40000 nM.

With `Nc1ccc(C(=O)N2CCc3cc(S(=O)(=O)N4C[C@H](c5ccccc5)NC4=O)ccc32)cc1`, the concentration for 50% growth inhibition (GI50) worked out at 10 nM in test [1]; 20 nM in test [2]; 10 nM in test [6]; 2000 nM in test [7]; 120 nM in test [8]; 1200 nM in test [9]. Moreover, the figures for the GI50 in test [10] and in test [5] were 100 nM and 20 nM, respectively. This compound also showed a half-inhibitory concentration (IC50) in [3] of 1500 nM.

As to `O=C(c1ccco1)N1CCc2cc(S(=O)(=O)N3CC(c4cccs4)NC3=O)ccc21` (centres undefined), the values for the concentration for 50% growth inhibition (GI50) in test [1], in test [2] and in test [5] were 70 nM, 60 nM and 60 nM, respectively. In test [3], the IC50 is 4000 nM.

Take `CCOC(=O)Nc1ccc(S(=O)(=O)N2C[C@H](c3ccccc3)NC2=O)cc1C`: the GI50 turned out to be 70 nM in [1]; 70 nM in test [2]; 150 nM in [6]; 150 nM in test [7]; 100 nM in [8]; 130 nM in test [9]. Also, the GI50 in test [10] turned out to be 450 nM; in test [5], 40 nM. Besides, in test [3], the 50% inhibitory concentration (IC50) is 6000 nM.

Take `O=C(c1cccs1)N1CCc2cc(S(=O)(=O)N3C[C@H](c4ccccc4)NC3=O)ccc21`: the values for the GI50 in test [1], in test [2] and in test [5] were 10 nM, 20 nM and 20 nM, respectively. Moreover, the IC50 in [3] worked out at 1600 nM.

Turning to `Nc1ccc(C(=O)Nc2ccc(S(=O)(=O)N3C[C@H](c4ccccc4)NC3=O)cc2Cl)cc1`, the concentration for 50% growth inhibition (GI50) in [1], in [2] and in test [5] was 60 nM in each case. In test [3], this compound gave an IC50 of 5500 nM.

`CN1CCN(CCOC(=O)N2CCc3cc(S(=O)(=O)N4C[C@H](c5ccccc5)NC4=O)ccc32)CC1`: the figures for the GI50 in test [1], in test [2] and in [5] were 1000 nM, 900 nM and 1000 nM, respectively. Moreover, the IC50 in [3] was 30000 nM.

For the compound `CC(=O)O[C@H]1C(=O)[C@@]2(C)[C@H]([C@H](OC(=O)c3ccccc3)[C@]3(O)C[C@H](OC(=O)[C@H](O)[C@@H](NC(=O)c4ccccc4)c4ccccc4)C(C)=C1C3(C)C)[C@]1(OC(C)=O)CO[C@@H]1C[C@@H]2O` [PACLITAXEL], the concentration for 50% growth inhibition (GI50) was below 1 nM in [1]; 7 nM in test [2]; 10 nM in test [6]; 8000 nM in [7]; 300 nM in test [8]; 3500 nM in test [9]. The GI50 in [10] came to 20000 nM; in [5], 10 nM.

In the case of `O=C(NCCN1CCOCC1)N1CCc2cc(S(=O)(=O)N3C[C@H](c4ccccc4)NC3=O)ccc21`, the GI50 in test [1] stood at 1200 nM; in test [2], 1000 nM; in test [5], 2800 nM.

Turning to `O=C(c1ccncc1)N1CCc2cc(S(=O)(=O)N3C[C@H](c4ccccc4)NC3=O)ccc21`, the results for the GI50 in test [1], in test [2] and in test [5] were 80 nM, 90 nM and 130 nM, respectively. Half-maximal inhibition in test [3] (IC50) was put at 10300 nM.

Take `O=C(CNc1ccccc1)N1CCc2cc(S(=O)(=O)N3C[C@H](c4ccccc4)NC3=O)ccc21`: the concentration for 50% growth inhibition (GI50) in [1] stood at 50 nM; in test [2], 150 nM; in [6] it was 150 nM; in test [7] it was 180 nM; in [8], 100 nM; in test [9], 150 nM. Besides, the GI50 in [10] amounted to 150 nM; in test [5] it was 80 nM. In [3], this compound registered an IC50 of 3500 nM.

Consider `O=C(c1cc(Cl)nc(Cl)c1)N1CCc2cc(S(=O)(=O)N3C[C@H](c4ccccc4)NC3=O)ccc21`, for which the GI50 worked out at 380 nM in test [1], 700 nM in [2] and 380 nM in test [5]. Moreover, the half-maximal inhibitory concentration (IC50) in [3] amounted to 22000 nM.

As for `CC[C@]1(O)C[C@H]2CN(CCc3c([nH]c4ccccc34)[C@@](C(=O)OC)(c3cc4c(cc3OC)N(C=O)[C@H]3[C@@](O)(C(=O)OC)[C@H](OC(C)=O)[C@]5(CC)C=CCN6CC[C@]43[C@@H]65)C2)C1` [VINCRISTINE], the values for the concentration for 50% growth inhibition (GI50) in [1], in test [2] and in [5] were 1 nM, 3 nM and 20 nM, respectively.

`Nc1ccc(C(=O)N2CCc3cc(S(=O)(=O)N4CC(c5cccs5)NC4=O)ccc32)cc1` (centres undefined): the GI50 came out at 300 nM in [1], 250 nM in [2] and 180 nM in [5]. In test [3], the IC50 was 10500 nM.

As to `O=C(NC1CCCCC1)N1CCc2cc(S(=O)(=O)N3C[C@H](c4ccccc4)NC3=O)ccc21`, the GI50 in test [1] is 50 nM; in test [2], 80 nM; in test [6], 150 nM; in test [7], 1300 nM; in test [8], 120 nM; in test [9], 700 nM. Moreover, the GI50 in test [10] came to 150 nM; in [5], 60 nM. In addition, the IC50 in [3] came out at 2000 nM.

As for `CCOC(=O)N1CCc2cc(S(=O)(=O)N3C[C@H](c4ccccc4)NC3=O)ccc21`, the GI50 in test [1], in [2] and in test [5] was 80 nM in each case. Also, in test [3], the IC50 worked out at 1500 nM.
